These results are taken from patent US9995730B2, “Hypoxia Inducible Factor (HIF) Activity Reporter Cell Line” (Universiti Putra Malaysia (UPM), priority 2012, dated 2018).

In one data set the test system is HIF. In words: HIF activity reporter assay (single luciferase assay, 4XEPO-HRE-FLuc stable Saos-2 clone 3). The data set is classed as cell-based, human. The note with it: for reporter signal intensities: FIGS. 9A and B legend. The method, then: To confirm the HIF reporter activity of neomycin-resistant parental population, a single luciferase assay was conducted. Initially, 2.5×10^4 of the cells were plated in wells of a 48-well plates in antibiotic-free DMEM with 10% FBS for 16 hours. One of the plates was then incubated for 24 hours in a normoxic (21% 02) gaseous atmosphere in a humidified CO2 incubator while the other was incubated in a hypoxic (0.5% 02) gaseous environment in a hypoxic chamber (BioSpherix, USA) controlled by an oxygen regulator (ProOx model 110, BioSpherix, USA. After 24 hours of exposure to different oxygen concentrations, Bright-Glo™ Luciferase Assay (Promega, USA) was conducted to analyse the HIF reporter activity. Initially, growth media in each well was discarded and the cells were rinsed once with 300 μl of 1×PBS. Room temperature-equilibrated Glo Lysis Buffer (GLB; 60 μl) was then added into the wells. Plates were then gently rocked on a shaker for 5 min at room temperature. Cell lysis was confirmed visually by observing the wells of the 48-well plate under a light microscope. Thirty microliters of the resulting cell lysates were then transferred into individual glass vials. Bright-Glo™ Assay Reagent was then added into each tube at a 1:1 (v/v) ratio. Luminescence intensity was immediately read and recorded by a Luminometer (Sirius-2, Titertek-Berthold).
(§1) To verify the property of the stable single cell population as an assay system to measure HIF activity, a proof of concept study was performed with commercially available and known HIF inhibitors. […] Treatment of these drugs in certain cancer cells leads to cell death. To confirm that the inhibition of bioluminescence in our cell assay system is due to HIF inhibition rather than this cytotoxic effect, we simultaneously determined the viability of cells under various concentrations of each drug used for the inhibition assay. The 3-(4,5-dimethylthiazol-2-yl)-2,5-[…] bromide MTT assay was used. […] The cells were then incubated in either normoxic or hypoxic conditions for 24 hours. After the treatment, cell culture media was replaced with fresh serum-free DMEM containing 0.5 mg/ml MTT. After 4 hours of incubation in a humidified CO2 incubator at 37° C., formazan precipitates were dissolved with 100 μl of DMSO. The resulting reaction was read using a microplate reader at 570 nm absorbance and 630 nm as the reference wavelength. The half maximal inhibitory concentration (IC50) of each drug towards the cells was determined by plotting graphs using the Graphpad Prism 5 software. HIF inhibitory effects at the various concentrations of drugs tested were also measured using the single luciferase assay system. A correlation between the drugs' effects on cell viability and HIF inhibition was then evaluated.
On the technique in general: In a reporter assay the amount or activity of a reporter protein is the signal.

Data set [1] relates to clone 3 cells (stable Saos-2 osteosarcoma clone). Put plainly: MTT cell viability assay. It counts as cell-based, human. The method, then: as §1, with “To confirm that the inhibition of bioluminescence in our cell assay system is due to HIF inhibition rather than this cytotoxic effect, we simultaneously determined the viability of cells under various concentrations of each drug used for the inhibition assay.” left out
A general note: Tetrazolium dyes change colour on reduction, which living cells bring about.

For the molecule `CC(C)C[C@H](NC(=O)[C@H](Cc1ccccc1)NC(=O)c1cnccn1)B(O)O` [Bortezomib], in the data set with HIF, the reporter signal intensities result was “reduction of reporter signal intensities”. Further, the hypoxia-induced luciferase signal result in the data set on HIF (clone 3 cells, hypoxia, concentrations of up to 500 nM) is recorded as “significantly reduced”. Further, the cell viability entry is “the inhibition was associated with cell death” in data set [1] (concentrations higher than 500 nM) and “without affecting cell viability” in data set [1] (concentrations of up to 500 nM).
In the case of `N.N.[Cl][Pt][Cl]` [cisplatin], the reporter signal intensities result in the data set on HIF is on record as “reduction of reporter signal intensities”. Further, the “inhibition of luciferase signals” value in the data set on HIF (hypoxic clone 3, 25 μM concentration) is on record as roughly 60%.
